Test results from US20240166646A1, “1H-PYRROLO[2,3-B]PYRIDINE DERIVATIVES AS BCL-2 INHIBITORS FOR THE TREATMENT OF NEOPLASTIC AND AUTOIMMUNE DISEASES” (Newave Pharmaceutical Inc., priority 2020, published 2024).
pIC50: −log10 of the molar value.

Assays:
Bcl-2 = Bcl-2 (Homo sapiens (Human), UniProt P10415); assay: Bcl-2 competition binding (fluorescence polarization) assay; conditions: fluorescein labeled BH3 peptide 15 nM, Bcl-2 protein 30 nM, 3 hours of incubation at room temperature
Summary of the method: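 Fluorescence polarization competition of 15 nM labeled 23-mer BH3 peptide with 30 nM purified Bcl-2, in 20 mM Hepes pH 7.0, 50 mM KCl, 5 mM MgCl2, 20 mM Na2MoO4, 0.1 mg/ml bovine gamma globulin, 0.01% NP40. Compounds 20 μM to 2 nM final; mP read after 3 h at room temperature, background-subtracted. IC50 from sigmoidal dose-response fit.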

[1] = test system: BCL-2-dependent acute lymphoblastic leukemia (ALL) cell line RS4; 11 with G101V mutation; assay: In vitro anti-proliferation assay (ATPlite) in RS4; 11 with G101V mutation; assay type: cell-based; conditions: about 72 hours incubation, medium with 5% FBS or 10% normal human serum, ATPlite luminescence
Experimental: Cell antiproliferation was assayed by PerkinElmer ATPlite™ Luminescence Assay System. Briefly, the various test cancer cell lines were plated at a density of about 1×10^4 cells per well in Costar 96-well plates, and were incubated with different concentrations of compounds for about 72 hours in medium supplemented with 5% FBS or 10% normal human serum (NHS). One lyophilized substrate solution vial was then reconstituted by adding 5 mL of substrate buffer solution, and was agitated gently until the solution was homogeneous. About 50 μL of mammalian cell lysis solution was added to 100 μL of cell suspension per well of a microplate, and the plate was shaken for about five minutes in an orbital shaker at ˜700 rpm. This procedure was used to lyse the cells and to stabilize the ATP. Next, 50 μL substrate solution was added to the wells and microplate was shaken for five minutes in an orbital shaker at ˜700 rpm. Finally, the luminescence was measured by a PerkinElmer TopCount® Microplate Scintillation Counter. Such assays, carried out with a range of doses of test compounds, allowed the determination of the cellular anti-antiproliferative IC50 of the compounds of the present invention.

Sequence of Bcl-2 (P10415 whole entry): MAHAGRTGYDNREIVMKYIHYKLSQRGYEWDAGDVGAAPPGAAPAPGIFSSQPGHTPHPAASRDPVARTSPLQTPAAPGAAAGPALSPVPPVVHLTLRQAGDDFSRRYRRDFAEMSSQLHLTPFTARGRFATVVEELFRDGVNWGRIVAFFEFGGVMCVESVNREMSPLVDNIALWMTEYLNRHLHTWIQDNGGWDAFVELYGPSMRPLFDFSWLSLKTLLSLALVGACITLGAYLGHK

Row | Compound | pIC50 (Bcl-2) | pIC50 [1] | pIC50 ([1]; RS4-11)
1 | Cc1ccccc1[C@@H]1CCCN1C1CC2(CCN(c3ccc(C(=O)NS(=O)(=O)c4ccc(NCC5CCC(C)(O)CC5)c([N+](=O)[O-])c4)c(N4c5cc6cc[nH]c6nc5O[C@@H]5COC[C@H]54)c3)CC2)C1 (stereo partly drawn) [Example 40, N-((4-((((1s,4s)-4-hydroxy-4-methylcyclohexyl)methyl)amino)-3-nitrophenyl)sulfonyl)-2-((5aR,8aS)-5a,6,8,8a-tetrahydrofuro[3,4-b]pyrrolo[3′,2′:5,6]pyrido[3,2-e][1,4]oxazin-5(1H)-yl)-4-(2-((S)-2-(o-tolyl)pyrrolidin-1-yl)-7-azaspiro[3.5]nonan-7-yl)benzamide] | 9.70 | 7.46 | –
2 | Cc1ccccc1[C@@H]1CCCN1C1CC2(CCN(c3ccc(C(=O)NS(=O)(=O)c4ccc(NCC5CCC(C)(O)CC5)c([N+](=O)[O-])c4)c(N4c5cc6cc[nH]c6nc5O[C@@H]5COC[C@H]54)c3)CC2)C1 (stereo partly drawn) [Example 41, N-((4-((((1r,4r)-4-hydroxy-4-methylcyclohexyl)methyl)amino)-3-nitrophenyl)sulfonyl)-2-((5aR,8aS)-5a,6,8,8a-tetrahydrofuro[3,4-b]pyrrolo[3′,2′:5,6]pyrido[3,2-e][1,4]oxazin-5(1H)-yl)-4-(2-((S)-2-(o-tolyl)pyrrolidin-1-yl)-7-azaspiro[3.5]nonan-7-yl)benzamide] | 9.74 | 7.83 | –
3 | CC(C)Oc1ccccc1[C@@H]1CCCN1C1CC2(CCN(c3ccc(C(=O)NS(=O)(=O)c4ccc(NCC5CCC(C)(O)CC5)c([N+](=O)[O-])c4)c(N4c5cc6cc[nH]c6nc5O[C@@H]5COC[C@H]54)c3)CC2)C1 (stereo partly drawn) [Example 44, N-((4-((((1s,4s)-4-hydroxy-4-methylcyclohexyl)methyl)amino)-3-nitrophenyl)sulfonyl)-4-(2-((S)-2-(2-isopropoxyphenyl)pyrrolidin-1-yl)-7-azaspiro[3.5]nonan-7-yl)-2-((5aR,8aS)-5a,6,8,8a-tetrahydrofuro[3,4-b]pyrrolo[3′,2′:5,6]pyrido[3,2-e][1,4]oxazin-5(1H)-yl)benzamide] | 9.75 | 7.01 | –
4 | CC(C)Oc1ccccc1[C@@H]1CCCN1C1CC2(CCN(c3ccc(C(=O)NS(=O)(=O)c4ccc(NCC5CCC(C)(O)CC5)c([N+](=O)[O-])c4)c(N4c5cc6cc[nH]c6nc5O[C@@H]5COC[C@H]54)c3)CC2)C1 (stereo partly drawn) [Example 45, N-((4-((((1r,4r)-4-hydroxy-4-methylcyclohexyl)methyl)amino)-3-nitrophenyl)sulfonyl)-4-(2-((S)-2-(2-isopropoxyphenyl)pyrrolidin-1-yl)-7-azaspiro[3.5]nonan-7-yl)-2-((5aR,8aS)-5a,6,8,8a-tetrahydrofuro[3,4-b]pyrrolo[3′,2′:5,6]pyrido[3,2-e][1,4]oxazin-5(1H)-yl)benzamide] | 9.70 | 7.62 | –
5 | CC(C)(C)c1ccccc1[C@@H]1CCCN1C1CC2(CCN(c3ccc(C(=O)NS(=O)(=O)c4ccc(NCC5CCOCC5)c([N+](=O)[O-])c4)c(N4c5cc6cc[nH]c6nc5O[C@@H]5COC[C@H]54)c3)CC2)C1 [Example 46, 4-{2-[(2S)-2-(2-tert-butylphenyl)pyrrolidin-1-yl]-7-azaspiro[3.5]nonan-7-yl}-2-[(11R,15S)-13,16-dioxa-2,4,10-triazatetracyclo[7.7.0.0^{3,7}.0^{11,15}]hexadeca-1(9),2,5,7-tetraen-10-yl]-N-{3-nitro-4-[(oxan-4-ylmethyl)amino]benzenesulfonyl}benzamide] | 9.40 | 7.24 | –
6 | CC(C)Oc1ccccc1[C@@H]1CCCN1C1CC2(CCN(c3ccc(C(=O)NS(=O)(=O)c4ccc(NCC5CCOCC5)c([N+](=O)[O-])c4)c(N4c5cc6cc[nH]c6nc5O[C@H]5COC[C@H]54)c3)CC2)C1 [Example 54, 4-(2-((S)-2-(2-isopropoxyphenyl)pyrrolidin-1-yl)-7-azaspiro[3.5]nonan-7-yl)-N-((3-nitro-4-(((tetrahydro-2H-pyran-4-yl)methyl)amino)phenyl)sulfonyl)-2-((5aR,8aR)-5a,6,8,8a-tetrahydrofuro[3,4-b]pyrrolo[3′,2′:5,6]pyrido[3,2-e][1,4]oxazin-5(1H)-yl)benzamide] | 9.23 | – | < 6.00
7 | CC(C)Oc1ccccc1[C@@H]1CCCN1C1CC2(CCN(c3ccc(C(=O)NS(=O)(=O)c4ccc(NCC5CCOCC5)c([N+](=O)[O-])c4)c(N4c5cc6cc[nH]c6nc5O[C@@H]5COC[C@@H]54)c3)CC2)C1 [Example 55, 4-(2-((S)-2-(2-isopropoxyphenyl)pyrrolidin-1-yl)-7-azaspiro[3.5]nonan-7-yl)-N-((3-nitro-4-(((tetrahydro-2H-pyran-4-yl)methyl)amino)phenyl)sulfonyl)-2-((5aS,8aS)-5a,6,8,8a-tetrahydrofuro[3,4-b]pyrrolo[3′,2′:5,6]pyrido[3,2-e][1,4]oxazin-5(1H)-yl)benzamide] | 9.22 | – | 6.41
8 | CC(C)Oc1ccccc1[C@@H]1CCCN1C1CC2(CCN(c3ccc(C(=O)NS(=O)(=O)c4ccc(NCC5CCOCC5)c([N+](=O)[O-])c4)c(N4c5cc6cc[nH]c6nc5O[C@H]5CCOC[C@@H]54)c3)CC2)C1 [Example 58, 4-(2-((S)-2-(2-isopropoxyphenyl)pyrrolidin-1-yl)-7-azaspiro[3.5]nonan-7-yl)-N-((3-nitro-4-(((tetrahydro-2H-pyran-4-yl)methyl)amino)phenyl)sulfonyl)-2-((5aS,9aS)-5a,8,9,9a-tetrahydro-6H-pyrano[4,3-b]pyrrolo[3′,2′:5,6]pyrido[3,2-e][1,4]oxazin-5(1H)-yl)benzamide] | 9.49 | – | 6.73

Continued, in another order:

Row | pIC50 (Bcl-2) | Compound | pIC50 [1] | pIC50 ([1]; RS4-11)
9 | 9.66 | CC(C)Oc1ccccc1[C@@H]1CCCN1C1CC2(CCN(c3ccc(C(=O)NS(=O)(=O)c4ccc(NCC5(F)CCOCC5)c([N+](=O)[O-])c4)c(N4c5cc6cc[nH]c6nc5O[C@@H]5COC[C@H]54)c3)CC2)C1 [Example 42, N-((4-(((4-fluorotetrahydro-2H-pyran-4-yl)methyl)amino)-3-nitrophenyl)sulfonyl)-4-(2-((S)-2-(2-isopropoxyphenyl)pyrrolidin-1-yl)-7-azaspiro[3.5]nonan-7-yl)-2-((5aR,8aS)-5a,6,8,8a-tetrahydrofuro[3,4-b]pyrrolo[3′,2′:5,6]pyrido[3,2-e][1,4]oxazin-5(1H)-yl)benzamide] | – | 7.53
10 | 9.55 | CC(C)Oc1ccccc1[C@@H]1CCCN1C1CC2(CCN(c3ccc(C(=O)NS(=O)(=O)c4ccc(NC[C@H]5COCCO5)c([N+](=O)[O-])c4)c(N4c5cc6cc[nH]c6nc5O[C@@H]5COC[C@H]54)c3)CC2)C1 [Example 43, N-((4-((((S)-1,4-dioxan-2-yl)methyl)amino)-3-nitrophenyl)sulfonyl)-4-(2-((S)-2-(2-isopropoxyphenyl)pyrrolidin-1-yl)-7-azaspiro[3.5]nonan-7-yl)-2-((5aR,8aS)-5a,6,8,8a-tetrahydrofuro[3,4-b]pyrrolo[3′,2′:5,6]pyrido[3,2-e][1,4]oxazin-5(1H)-yl)benzamide] | – | 7.06
11 | 9.51 | CC#Cc1ccccc1[C@@H]1CCCN1C1CC2(CCN(c3ccc(C(=O)NS(=O)(=O)c4ccc(NCC5CCOCC5)c([N+](=O)[O-])c4)c(N4c5cc6cc[nH]c6nc5O[C@@H]5COC[C@H]54)c3)CC2)C1 [Example 47, N-((3-nitro-4-(((tetrahydro-2H-pyran-4-yl)methyl)amino)phenyl)sulfonyl)-4-(2-((S)-2-(2-(prop-1-yn-1-yl)phenyl)pyrrolidin-1-yl)-7-azaspiro[3.5]nonan-7-yl)-2-((5aR,8aS)-5a,6,8,8a-tetrahydrofuro[3,4-b]pyrrolo[3′,2′:5,6]pyrido[3,2-e][1,4]oxazin-5(1H)-yl)benzamide] | – | 6.54
12 | 9.58 | Cc1ccccc1[C@@H]1COCCN1C1CC2(CCN(c3ccc(C(=O)NS(=O)(=O)c4ccc(NCC5CCOCC5)c([N+](=O)[O-])c4)c(N4c5cc6cc[nH]c6nc5O[C@@H]5COC[C@H]54)c3)CC2)C1 [Example 50, N-((3-nitro-4-(((tetrahydro-2H-pyran-4-yl)methyl)amino)phenyl)sulfonyl)-2-((5aR,8aS)-5a,6,8,8a-tetrahydrofuro[3,4-b]pyrrolo[3′,2′:5,6]pyrido[3,2-e][1,4]oxazin-5(1H)-yl)-4-(2-((R)-3-(o-tolyl)morpholino)-7-azaspiro[3.5]nonan-7-yl)benzamide] | – | 7.14
13 | 8.97 | Cc1ccccc1[C@H]1COCCN1C1CC2(CCN(c3ccc(C(=O)NS(=O)(=O)c4ccc(NCC5CCOCC5)c([N+](=O)[O-])c4)c(N4c5cc6cc[nH]c6nc5O[C@@H]5COC[C@H]54)c3)CC2)C1 [Example 51, N-((3-nitro-4-(((tetrahydro-2H-pyran-4-yl)methyl)amino)phenyl)sulfonyl)-2-((5aR,8aS)-5a,6,8,8a-tetrahydrofuro[3,4-b]pyrrolo[3′,2′:5,6]pyrido[3,2-e][1,4]oxazin-5(1H)-yl)-4-(2-((S)-3-(o-tolyl)morpholino)-7-azaspiro[3.5]nonan-7-yl)benzamide] | – | 6.44
